These are literature values, as cited in patent US5281578A, “Gallium compounds” (Johnson Matthey Public Limited Company, priority 1992, dated 1994).

SMILES strings stand for the structures. Where two headings read alike, the source gives them in different places.

The conditions of data set [1]: pH 4.5-7.

`[Ga+3]` [gallium(III) aquo-ion]: the “absorption from the gastro-intestinal tract” value in data set [1] is “very poorly absorbed”.
For the molecule `[Ga]` [gallium], the renal toxicity result in the data set with renal toxicity (iv bolus) is given as “dose-limiting”; in the data set on renal toxicity (seven day continuous iv infusion, cancer-associated hypercalcemia), “no renal toxicity”.
